Results taken from PubChem BioAssay (NCI).
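Protocol summary: plate cells (96-well), add compound at 5 concentrations, incubate 48 h, interpolate endpoints linearly. Abbreviation: GI50, concentration required for 50% inhibition of growth. At the TGI there is no net growth.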

Key:
Experiment in all cases: NCI tumour cell line growth inhibition, 48 h
EKVX NSCLC = tested on: EKVX NSCLC
HCT-116 colon = tested on: HCT-116 colon
HCT-15 colon = tested on: HCT-15 colon
HT29 colon = tested on: HT29 colon
M14 melanoma = tested on: M14 melanoma
NCI-H460 lung = tested on: NCI-H460 lung
NCI/ADR-RES ovarian = tested on: NCI/ADR-RES ovarian
SK-MEL-2 melanoma = tested on: SK-MEL-2 melanoma
SW-620 colon = tested on: SW-620 colon
T-47D breast = tested on: T-47D breast

SMILES: NS(=O)(=O)c1ccc(N2N=C3c4ccccc4CC3C2c2cccs2)cc1 (centres undefined)
- GI50 (EKVX NSCLC): 15.9 µM
- TGI (EKVX NSCLC): 52.5 µM
- GI50 (HCT-116 colon): 10.7 µM
- TGI (HCT-116 colon): 25 µM
- GI50 (HCT-15 colon): 34.7 µM
- TGI (HCT-15 colon): > 100 µM
- GI50 (HT29 colon): 26.1 µM
- TGI (HT29 colon): > 100 µM
- GI50 (M14 melanoma): 26 µM
- TGI (M14 melanoma): > 100 µM
- GI50 (NCI-H460 lung): > 100 µM
- TGI (NCI-H460 lung): > 100 µM
- GI50 (NCI/ADR-RES ovarian): 17.1 µM
- TGI (NCI/ADR-RES ovarian): 43.4 µM
- GI50 (SK-MEL-2 melanoma): > 100 µM
- TGI (SK-MEL-2 melanoma): > 100 µM
- GI50 (SW-620 colon): 35.4 µM
- TGI (SW-620 colon): > 100 µM
- GI50 (T-47D breast): 66.9 µM
- TGI (T-47D breast): > 100 µM

SMILES: CN(C)CCNC(=O)c1ccc(-c2nc3ccc4[nH]ncc4c3c3c2C2CCC3C2)cc1 (centres undefined)
- GI50 (EKVX NSCLC): 1.72 µM
- TGI (EKVX NSCLC): 6.91 µM
- GI50 (HCT-116 colon): 0.432 µM
- TGI (HCT-116 colon): 9.13 µM
- GI50 (HCT-15 colon): 2.44 µM
- TGI (HCT-15 colon): 11.4 µM
- GI50 (HT29 colon): 1.84 µM
- TGI (HT29 colon): 13 µM
- GI50 (M14 melanoma): 0.809 µM
- TGI (M14 melanoma): 2.75 µM
- GI50 (NCI-H460 lung): 1.56 µM
- TGI (NCI-H460 lung): 4.79 µM
- GI50 (NCI/ADR-RES ovarian): 8.3 µM
- TGI (NCI/ADR-RES ovarian): 26.8 µM
- GI50 (SK-MEL-2 melanoma): 1.55 µM
- TGI (SK-MEL-2 melanoma): 3.74 µM
- GI50 (SW-620 colon): 0.473 µM
- TGI (SW-620 colon): 5.16 µM
- GI50 (T-47D breast): 2.25 µM
- TGI (T-47D breast): 7.86 µM

SMILES: CCCCCN(CCCCC)CC(O)c1cc(Cl)ccc1OC (centres undefined)
- GI50 (EKVX NSCLC): 6.39 µM
- TGI (EKVX NSCLC): 22.3 µM
- GI50 (HCT-116 colon): 2.49 µM
- TGI (HCT-116 colon): 12.6 µM
- GI50 (HCT-15 colon): 6.32 µM
- TGI (HCT-15 colon): 21.5 µM
- GI50 (HT29 colon): 0.683 µM
- TGI (HT29 colon): 12 µM
- GI50 (M14 melanoma): 8.81 µM
- TGI (M14 melanoma): 22.6 µM
- GI50 (NCI-H460 lung): 4.7 µM
- TGI (NCI-H460 lung): 18 µM
- GI50 (NCI/ADR-RES ovarian): 9.26 µM
- TGI (NCI/ADR-RES ovarian): 25.9 µM
- GI50 (SK-MEL-2 melanoma): 3.22 µM
- TGI (SK-MEL-2 melanoma): 14.2 µM
- GI50 (SW-620 colon): 4.66 µM
- TGI (SW-620 colon): 18.2 µM
- GI50 (T-47D breast): 11.5 µM
- TGI (T-47D breast): 26.9 µM

SMILES: O=S1(=O)N(Cc2ccccc2)[C@@H](Cc2ccccc2)[C@H](O)[C@H](O)[C@H](Cc2ccccc2)N1Cc1ccccc1
- GI50 (EKVX NSCLC): 3.43 µM
- TGI (EKVX NSCLC): 9.86 µM
- GI50 (HCT-116 colon): 2.43 µM
- TGI (HCT-116 colon): 5.05 µM
- GI50 (HCT-15 colon): 4.37 µM
- TGI (HCT-15 colon): 18.2 µM
- GI50 (HT29 colon): 2.63 µM
- TGI (HT29 colon): 5.64 µM
- GI50 (M14 melanoma): 3.04 µM
- TGI (M14 melanoma): 6.07 µM
- GI50 (NCI-H460 lung): 3.41 µM
- TGI (NCI-H460 lung): 7.91 µM
- GI50 (NCI/ADR-RES ovarian): 3.4 µM
- TGI (NCI/ADR-RES ovarian): 8.58 µM
- GI50 (SK-MEL-2 melanoma): 2.8 µM
- TGI (SK-MEL-2 melanoma): 5.76 µM
- GI50 (SW-620 colon): 3.18 µM
- TGI (SW-620 colon): 7.12 µM
- GI50 (T-47D breast): 3.95 µM
- TGI (T-47D breast): 10.2 µM

SMILES: COc1cccc(CN(C)c2ccc(CO)c(Cl)c2)c1
- GI50 (EKVX NSCLC): 24.8 µM
- TGI (EKVX NSCLC): 97.9 µM
- GI50 (HCT-116 colon): 0.243 µM
- TGI (HCT-116 colon): 14.1 µM
- GI50 (HCT-15 colon): 24 µM
- TGI (HCT-15 colon): > 100 µM
- GI50 (HT29 colon): 5.03 µM
- TGI (HT29 colon): > 100 µM
- GI50 (M14 melanoma): 25.2 µM
- TGI (M14 melanoma): > 100 µM
- GI50 (NCI-H460 lung): 0.97 µM
- TGI (NCI-H460 lung): 21 µM
- GI50 (NCI/ADR-RES ovarian): 19.1 µM
- TGI (NCI/ADR-RES ovarian): 67 µM
- GI50 (SK-MEL-2 melanoma): 7.78 µM
- TGI (SK-MEL-2 melanoma): 42.5 µM
- GI50 (SW-620 colon): 4.34 µM
- TGI (SW-620 colon): > 100 µM
- GI50 (T-47D breast): 0.298 µM
- TGI (T-47D breast): 2.86 µM

SMILES: CNNC(=N\S(=O)(=O)c1cc(C)c(Cl)cc1SCc1ccccc1)/N=C/c1ccc([N+](=O)[O-])s1
- GI50 (EKVX NSCLC): > 29.6 µM
- TGI (EKVX NSCLC): > 100 µM
- GI50 (HCT-116 colon): 1.53 µM
- TGI (HCT-116 colon): > 100 µM
- TGI (HCT-15 colon): > 100 µM
- GI50 (HT29 colon): 27.4 µM
- TGI (HT29 colon): > 100 µM
- GI50 (M14 melanoma): 9.97 µM
- TGI (M14 melanoma): > 78.5 µM
- GI50 (NCI-H460 lung): > 64.1 µM
- TGI (NCI-H460 lung): > 100 µM
- GI50 (NCI/ADR-RES ovarian): > 100 µM
- TGI (NCI/ADR-RES ovarian): > 100 µM
- GI50 (SK-MEL-2 melanoma): > 100 µM
- TGI (SK-MEL-2 melanoma): > 100 µM
- GI50 (SW-620 colon): 30.9 µM
- TGI (SW-620 colon): > 100 µM
- GI50 (T-47D breast): > 100 µM
- TGI (T-47D breast): > 100 µM

SMILES: O=C(Nc1ccc(F)cc1F)c1cc(Cl)ccc1O
- GI50 (EKVX NSCLC): 1.94 µM
- TGI (EKVX NSCLC): 8.38 µM
- GI50 (HCT-116 colon): 1.23 µM
- TGI (HCT-116 colon): 3.31 µM
- GI50 (HCT-15 colon): 1.54 µM
- TGI (HCT-15 colon): 18 µM
- GI50 (HT29 colon): 3.62 µM
- TGI (HT29 colon): > 100 µM
- GI50 (M14 melanoma): 0.446 µM
- TGI (M14 melanoma): 4.18 µM
- GI50 (NCI-H460 lung): 1.42 µM
- TGI (NCI-H460 lung): 19.2 µM
- GI50 (NCI/ADR-RES ovarian): 2.52 µM
- TGI (NCI/ADR-RES ovarian): 13.3 µM
- GI50 (SK-MEL-2 melanoma): 1.16 µM
- TGI (SK-MEL-2 melanoma): 4.93 µM
- GI50 (SW-620 colon): 2.61 µM
- TGI (SW-620 colon): 18.7 µM
- GI50 (T-47D breast): 0.473 µM
- TGI (T-47D breast): 5.5 µM

SMILES: CCN1CCN(Cc2ccc(NC(=O)Nc3nc4ccc(Oc5ccnc(C(=O)NC)c5)cc4s3)cc2C(F)(F)F)CC1
- GI50 (EKVX NSCLC): 2.01 µM
- TGI (EKVX NSCLC): 6.67 µM
- GI50 (HCT-116 colon): 1.73 µM
- TGI (HCT-116 colon): 3.45 µM
- GI50 (HCT-15 colon): 1.65 µM
- TGI (HCT-15 colon): 3.38 µM
- GI50 (HT29 colon): 1.27 µM
- TGI (HT29 colon): 3.42 µM
- GI50 (M14 melanoma): 1.75 µM
- TGI (M14 melanoma): 3.38 µM
- GI50 (NCI-H460 lung): 1.91 µM
- TGI (NCI-H460 lung): 3.63 µM
- GI50 (NCI/ADR-RES ovarian): 1.95 µM
- TGI (NCI/ADR-RES ovarian): 4.21 µM
- GI50 (SK-MEL-2 melanoma): 1.75 µM
- TGI (SK-MEL-2 melanoma): 3.51 µM
- GI50 (SW-620 colon): 2.07 µM
- TGI (SW-620 colon): 3.87 µM
- GI50 (T-47D breast): 1.99 µM
- TGI (T-47D breast): 4.25 µM

SMILES: CN(C)c1ccc(/C=C2\N=C(c3ccccc3)N(c3cc(C(F)(F)F)ccc3Cl)C2=O)cc1
- GI50 (EKVX NSCLC): > 100 µM
- TGI (EKVX NSCLC): > 100 µM
- GI50 (HCT-116 colon): > 100 µM
- TGI (HCT-116 colon): > 100 µM
- GI50 (HCT-15 colon): > 100 µM
- TGI (HCT-15 colon): > 100 µM
- GI50 (HT29 colon): > 100 µM
- TGI (HT29 colon): > 100 µM
- GI50 (M14 melanoma): > 100 µM
- TGI (M14 melanoma): > 100 µM
- GI50 (NCI-H460 lung): > 100 µM
- TGI (NCI-H460 lung): > 100 µM
- GI50 (NCI/ADR-RES ovarian): > 100 µM
- TGI (NCI/ADR-RES ovarian): > 100 µM
- GI50 (SK-MEL-2 melanoma): > 100 µM
- TGI (SK-MEL-2 melanoma): > 100 µM
- GI50 (SW-620 colon): > 100 µM
- TGI (SW-620 colon): > 100 µM
- GI50 (T-47D breast): > 100 µM
- TGI (T-47D breast): > 100 µM
